Legend:
[1] = system: CYPIR (Rice Flatsedge); test: Preemergence weed control under flooded paddy conditions; assay type: in vivo, Cyperus iria; settings: rated 3-4 weeks after treatment
Method in brief: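 Silt loam, seeds in top 0.5 cm; flood held 1.5-3 cm; test cpd as acetone/water 50/50 into flood water, ~0.0313-0.500 kg/ha a.i.; greenhouse 3-4 wk; visual 0-9 score vs control.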

[2] = system: GALAP (Galium); test: Preemergence herbicidal evaluation; assay type: in vivo, Galium aparine; settings: rated 4-5 weeks after treatment
Method in brief: (§1)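 Seeds were planted in potting soil in cups, then sprayed preemergence with the test compound in aqueous acetone at about 0.0156 to 0.500 kg per hectare. Cups were kept under greenhouse conditions and visually rated 4–5 weeks after treatment on a 0–9 scale against an untreated control.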

[3] = system: CHEAL (Lambsquarters, Common); test: Postemergence herbicidal evaluation; assay type: in vivo, Chenopodium album
Method in brief: (§2)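 Herbicidal effect was judged by eye on a 0–9 scale covering stand, vigor, deformity, size and chlorosis, compared with controls, four to five weeks after seedlings about two weeks old were sprayed (40 psi, ~0.0156–0.500 kg/ha).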

[4] = system: CYPSE (Flatsedge); test: Preemergence weed control under flooded paddy conditions; assay type: in vivo, Cyperus serotinus; settings: rated 3-4 weeks after treatment
Method in brief: (§3)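 Seeds or propagules sown in silt loam kept flooded 1.5-3 cm; compounds in 50/50 acetone/water pipetted into flood water at about 0.0313 to 0.500 kg/ha. Greenhouse; visual 0-9 rating versus untreated control 3-4 weeks after treatment.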

[5] = system: SETVI (Foxtail, Green); test: Postemergence herbicidal evaluation; assay type: in vivo, Setaria viridis
Method in brief: as §2

[6] = system: CASOB (Sicklepod); test: Postemergence herbicidal evaluation; assay type: in vivo, Cassia obtusifolia
Method in brief: as §2

[7] = system: GALAP (Galium); test: Postemergence herbicidal evaluation; assay type: in vivo, Galium aparine
Method in brief: as §2

[8] = system: CYPSE (Flatsedge); test: Postemergence weed control under flooded paddy conditions; assay type: in vivo, Cyperus serotinus; settings: postemergence weeds, 3-4 weeks after treatment
Method in brief: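 With weeds 3 to 5 cm tall and rice at the 1.5 to 2.5 leaf stage, containers were flooded and water held 1.5 to 3 cm above soil. Compounds in 50/50 v/v aqueous/acetone went into the flood water at about 0.0313 to 0.500 kg/ha a.i. Effects were visually rated 0–9 against controls after three to four weeks in the greenhouse.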

[9] = system: AMBEL (Ragweed, Common); test: Postemergence herbicidal evaluation; assay type: in vivo, Ambrosia artemisifolia
Method in brief: as §2

[10] = system: CASOB (Sicklepod); test: Preemergence herbicidal evaluation; assay type: in vivo, Cassia obtusifolia; settings: rated 4-5 weeks after treatment
Method in brief: as §1

[11] = system: GLXMAW (Soybean, Williams); test: Postemergence herbicidal evaluation; assay type: in vivo, Glycine max, (L.) Merr. cv Williams
Method in brief: as §2

[12] = system: ECHCG (Barnyardgrass); test: Postemergence herbicidal evaluation; assay type: in vivo, Echinochloa crus-galli
Method in brief: as §2

[13] = system: ZEAMX (Corn, Field); test: Preemergence herbicidal evaluation; assay type: in vivo, Zea mays; settings: rated 4-5 weeks after treatment
Method in brief: as §1

[14] = system: ORYSAT (Rice, Tebonnet); test: Postemergence herbicidal evaluation; assay type: in vivo, Oryza sativa, (L.) Tebonnet
Method in brief: as §2

[15] = system: SAGPY (Arrowhead (Pygmaea)); test: Preemergence weed control under flooded paddy conditions; assay type: in vivo, Sagittaria pygmaea; settings: rated 3-4 weeks after treatment
Method in brief: as §3

CCOP(=O)(CN1C(=O)CSC1=Nc1cc(-n2c(=O)cc(C(F)(F)F)n(C)c2=O)c(F)cc1Cl)OCC [Compound 35, Diethyl {{2-{{2-chloro-5-[3,6-dihydro-3-methyl-2,6-dioxo-4-(trifluoromethyl)-1(2H)-pyrimidinyl]-4-fluorophenyl}imino}-4-oxo-3-thiazolidinyl}methyl}phosphonate]
Herbicidal rating CYPIR ([1]; 0.1250 kg/ha): 0.0 | Herbicidal rating CYPIR ([1]; 0.2500 kg/ha): 0.0 | Preemergence herbicidal rating GALAP ([2]; rate 0.0625 kg/ha): 0.0 | Preemergence herbicidal rating GALAP ([2]; rate 0.1250 kg/ha): 0.0 | Preemergence herbicidal rating GALAP ([2]; rate 0.2500 kg/ha): 9.0 | Postemergence herbicidal rating CHEAL ([3]; Rate 0.0158 kg/ha): 7.0 | Postemergence herbicidal rating CHEAL ([3]; Rate 0.0315 kg/ha): 9.0 | Postemergence herbicidal rating CHEAL ([3]; Rate 0.0630 kg/ha): 9.0 | Herbicidal rating CYPSE ([4]; 0.1250 kg/ha): 0.0 | Herbicidal rating CYPSE ([4]; 0.2500 kg/ha): 0.0 | Postemergence herbicidal rating SETVI ([5]; Rate 0.0158 kg/ha): 0.0 | Postemergence herbicidal rating SETVI ([5]; Rate 0.0315 kg/ha): 2.0 | Postemergence herbicidal rating SETVI ([5]; Rate 0.0630 kg/ha): 4.0 | Postemergence herbicidal rating CASOB ([6]; Rate 0.0158 kg/ha): 0.0 | Postemergence herbicidal rating CASOB ([6]; Rate 0.0315 kg/ha): 3.0 | Postemergence herbicidal rating CASOB ([6]; Rate 0.0630 kg/ha): 9.0 | Postemergence herbicidal rating GALAP ([7]; Rate 0.0158 kg/ha): 4.0 | Postemergence herbicidal rating GALAP ([7]; Rate 0.0315 kg/ha): 5.0 | Postemergence herbicidal rating GALAP ([7]; Rate 0.0630 kg/ha): 5.0 | Herbicidal rating CYPSE ([8]; rate 0.1250 kg/ha): 0.0 | Herbicidal rating CYPSE ([8]; rate 0.2500 kg/ha): 0.0 | Postemergence herbicidal rating AMBEL ([9]; Rate 0.0158 kg/ha): 9.0 | Postemergence herbicidal rating AMBEL ([9]; Rate 0.0315 kg/ha): 9.0 | Postemergence herbicidal rating AMBEL ([9]; Rate 0.0630 kg/ha): 9.0 | Preemergence herbicidal rating CASOB ([10]; rate 0.0625 kg/ha): 0.0 | Preemergence herbicidal rating CASOB ([10]; rate 0.1250 kg/ha): 0.0 | Preemergence herbicidal rating CASOB ([10]; rate 0.2500 kg/ha): 3.0 | Postemergence herbicidal rating GLXMAW ([11]; Rate 0.0158 kg/ha): 7.0 | Postemergence herbicidal rating GLXMAW ([11]; Rate 0.0315 kg/ha): 7.5 | Postemergence herbicidal rating GLXMAW ([11]; Rate 0.0630 kg/ha): 9.0 | Postemergence herbicidal rating ECHCG ([12]; Rate 0.0158 kg/ha): 0.0 | Postemergence herbicidal rating ECHCG ([12]; Rate 0.0315 kg/ha): 0.0 | Postemergence herbicidal rating ECHCG ([12]; Rate 0.0630 kg/ha): 1.0 | Preemergence herbicidal rating ZEAMX ([13]; rate 0.0625 kg/ha): 0.0 | Preemergence herbicidal rating ZEAMX ([13]; rate 0.1250 kg/ha): 0.0 | Preemergence herbicidal rating ZEAMX ([13]; rate 0.2500 kg/ha): 0.0 | Postemergence herbicidal rating ORYSAT ([14]; Rate 0.0158 kg/ha): 2.0 | Postemergence herbicidal rating ORYSAT ([14]; Rate 0.0315 kg/ha): 3.0 | Postemergence herbicidal rating ORYSAT ([14]; Rate 0.0630 kg/ha): 3.5 | Herbicidal rating SAGPY ([15]; 0.1250 kg/ha): 0.0 | Herbicidal rating SAGPY ([15]; 0.2500 kg/ha): 3.0

Source: patent publication US20020137929A1, “1 - (3-heterocyclylphenyl) isothiourea, -isourea, -guanidine and -amidine herbicidal agents” (Intellectual Property Department, BASF Aktiengesellschaft, priority 1998, published 2002)
